{"source": "patent US8912221B2", "about": "“Biaryl amide derivatives” (Hoffmann-La Roche Inc., priority 2010, dated 2014)", "key": {"Bradykinin-1 receptor [1]": {"biological_target": "T1, Bradykinin-1 receptor (Homo sapiens (Human), UniProt P46663)", "T1 sequence (P46663 whole entry)": "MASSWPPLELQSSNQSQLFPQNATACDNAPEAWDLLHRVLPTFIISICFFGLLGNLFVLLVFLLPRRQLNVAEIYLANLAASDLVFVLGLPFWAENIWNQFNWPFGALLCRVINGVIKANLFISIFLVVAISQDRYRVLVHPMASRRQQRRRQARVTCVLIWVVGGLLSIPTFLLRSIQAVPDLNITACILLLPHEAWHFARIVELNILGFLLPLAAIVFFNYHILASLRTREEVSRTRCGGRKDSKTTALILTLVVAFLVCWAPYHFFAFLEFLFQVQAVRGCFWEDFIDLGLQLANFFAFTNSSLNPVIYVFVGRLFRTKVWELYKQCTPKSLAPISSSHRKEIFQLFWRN", "test": "Receptor Binding Assay", "settings": "membranes from CHO-K1 cells overexpressing Bradykinin-1 receptor; 6 nM [3H]Kallidin (Des Arg10, Leu9); read-out: B1R Binding Ki", "experimental": "Binding assays were done with membranes from CHO-K1 cells overexpressing Bradykinin-1 receptor.\nFor binding, Bradykinin-1 receptor antagonist compounds were added in various concentrations in 50 mM Tris pH 7.4, 5 mM MgCl2 together with 6 nM Kallidin (Des Arg^10, Leu^9), [3,4-Prolyl-3,4-^3H(N)] (PerkinElmer, 1.85-4.44 TBq/mmol) to 40 μg membrane protein containing approximately 1 fmol Bradykinin-1 receptor and incubated for 15 min at 27° C. To determine non-specific binding 10 μM Lys-(Des-Arg^9)-Bradykinin (Bachem) was added. Membranes were harvested through GF/B (glass fiber filter; PerkinElmer) plates, equilibrated with 0.5% polyethylenimine, air dried at 50° C. for 2 hr. Radioactivity was determined by counting in a topcounter (NXT Packard). Specific binding was defined as total binding minus nonspecific binding and typically represents about 90-95% of the total binding. Antagonist activity is expressed as Ki: inhibitor concentration required for 50% inhibition of specific binding corrected for the concentration of the radioligand."}, "Bradykinin-1 receptor [2]": {"biological_target": "T1, Bradykinin-1 receptor", "test": "Calcium Mobilization Assay", "type": "cell-based", "settings": "GeneBLAzer Bradykinin (B1)-NFAT-bla CHO-K1 cells; antagonist activity, FLIPR; read-out: Ca mobilization IC50", "experimental": "Calcium Mobilization Assay\nGeneBLAzer® Bradykinin (B1)-NFAT-bla CHO-K1 cells (from Invitrogen) stably overexpressing the human bradykinin 1 receptor were cultured in DMEM (high glucose) supplemented with 10% dialysed FBS, 1% NEAA (non essential amino acids) 1% penicillin/streptomycin, 1% G418 and 0.1 mg/ml zeocin.\nFor the assay cells were grown overnight in 384-well black clear flat bottom polystyrene plates (Costar) at 37° C. at 5% CO2. After washing with DMEM, 20 mM Hepes, 2.5 mM probenecid, 0.1% BSA (DMEM assay buffer) cells were loaded with 4 μM Fluo-4 in the same DMEM assay buffer for 2 hours at 30° C. Excess dye was removed and cells were washed with DMEM assay buffer. 384-well compound plates were prepared with DMEM assay buffer/0.5% DMSO with or without various concentrations of test compounds. Usually compounds were tested for agonist and antagonist activity.\nTest compounds were added to the assay plate and agonist activity was monitored as fluorescence for 80 seconds with a FLIPR (488 nm excitation; 510-570 nm emission; Molecular Devices). […] Increases in intracellular calcium are reported as maximum fluorescence after agonist exposure minus basal fluorescence before exposure. Antagonist activity is indicated as inhibitor concentration required for 50% inhibition of specific calcium increases."}}, "data": [{"smiles": "Cc1nc(-c2c(F)cc(Cl)cc2-c2cnc([C@@H](C)NC(=O)C3(NC(=O)c4cc(F)cc(C(F)(F)F)c4)COC3)c(F)c2)no1", "note": "[Example 1, 3-(3-Fluoro-5-trifluoromethyl-benzoylamino)-oxetane-3-carboxylic acid ((R)-1-{5-[5-chloro-3-fluoro-2-(5-methyl-[1,2,4]oxadiazol-3-yl)-phenyl]-3-fluoro-pyridin-2-yl}-ethyl)-amide]", "values": [{"measurement": "Ki", "setting": "Bradykinin-1 receptor [1]", "result": 2.6, "unit": "nM"}, {"measurement": "IC50", "setting": "Bradykinin-1 receptor [2]", "result": 0.3, "unit": "nM"}]}, {"smiles": "Cc1nc(-c2c(F)cc(Cl)cc2-c2cnc([C@@H](C)NC(=O)C3(NC(=O)C(F)(F)F)COC3)c(F)c2)no1", "note": "[Example 2, 3-(2,2,2-Trifluoro-acetylamino)-oxetane-3-carboxylic acid ((R)-1-{5-[5-chloro-3-fluoro-2-(5-methyl-[1,2,4]oxadiazol-3-yl)-phenyl]-3-fluoro-pyridin-2-yl}-ethyl)-amide]", "values": [{"measurement": "Ki", "setting": "Bradykinin-1 receptor [1]", "result": 11.9, "unit": "nM"}, {"measurement": "IC50", "setting": "Bradykinin-1 receptor [2]", "result": 1.2, "unit": "nM"}]}, {"smiles": "Cc1nc(-c2c(F)cc(Cl)cc2-c2cnc([C@@H](C)NC(=O)C3(NC(=O)c4ccno4)COC3)c(F)c2)no1", "note": "[Example 3, Isoxazole-5-carboxylic acid [3-((R)-1-{5-[5-chloro-3-fluoro-2-(5-methyl-[1,2,4]oxadiazol-3-yl)-phenyl]-3-fluoro-pyridin-2-yl}-ethylcarbamoyl)-oxetan-3-yl]-amide]", "values": [{"measurement": "Ki", "setting": "Bradykinin-1 receptor [1]", "result": 2.4, "unit": "nM"}, {"measurement": "IC50", "setting": "Bradykinin-1 receptor [2]", "result": 0.4, "unit": "nM"}]}, {"smiles": "Cc1cc(C(=O)NC2(C(=O)N[C@H](C)c3ncc(-c4cc(Cl)cc(F)c4-c4noc(C)n4)cc3F)COC2)on1", "note": "[Example 4, 3-Methyl-isoxazole-5-carboxylic acid [3-((R)-1-{5-[5-chloro-3-fluoro-2-(5-methyl-[1,2,4]oxadiazol-3-yl)-phenyl]-3-fluoro-pyridin-2-yl}-ethylcarbamoyl)-oxetan-3-yl]-amide]", "values": [{"measurement": "Ki", "setting": "Bradykinin-1 receptor [1]", "result": 2.5, "unit": "nM"}, {"measurement": "IC50", "setting": "Bradykinin-1 receptor [2]", "result": 0.2, "unit": "nM"}]}, {"smiles": "Cc1nc(-c2c(F)cc(Cl)cc2-c2cnc([C@@H](C)NC(=O)C3(NC(=O)c4cncnc4)COC3)c(F)c2)no1", "note": "[Example 5, Pyrimidine-5-carboxylic acid [3-((R)-1-{5-[5-chloro-3-fluoro-2-(5-methyl-[1,2,4]oxadiazol-3-yl)-phenyl]-3-fluoro-pyridin-2-yl}-ethylcarbamoyl)-oxetan-3-yl]-amide]", "values": [{"measurement": "Ki", "setting": "Bradykinin-1 receptor [1]", "result": 1.1, "unit": "nM"}, {"measurement": "IC50", "setting": "Bradykinin-1 receptor [2]", "result": 0.1, "unit": "nM"}]}, {"smiles": "COC(=O)c1c(Cl)cccc1-c1ccc([C@@H](C)NC(=O)C2(NC(=O)C(F)(F)F)COC2)c(F)c1", "note": "[Example 6, 3-Chloro-3′-fluoro-4′-((R)-1-{[3-(2,2,2-trifluoro-acetylamino)-oxetane-3-carbonyl]-amino}-ethyl)-biphenyl-2-carboxylic acid methyl ester]", "values": [{"measurement": "Ki", "setting": "Bradykinin-1 receptor [1]", "result": 6.5, "unit": "nM"}, {"measurement": "IC50", "setting": "Bradykinin-1 receptor [2]", "result": 2.2, "unit": "nM"}]}, {"smiles": "COC(=O)c1c(Cl)cccc1-c1ccc([C@@H](C)NC(=O)C2(NC(=O)c3cncnc3)COC2)c(F)c1", "note": "[Example 7, 3-Chloro-3′-fluoro-4′-[(R)-1-({3-[(pyrimidine-5-carbonyl)-amino]-oxetane-3-carbonyl}-amino)-ethyl]-biphenyl-2-carboxylic acid methyl ester]", "values": [{"measurement": "Ki", "setting": "Bradykinin-1 receptor [1]", "result": 1.6, "unit": "nM"}, {"measurement": "IC50", "setting": "Bradykinin-1 receptor [2]", "result": 0.1, "unit": "nM"}]}, {"smiles": "COC(=O)c1c(Cl)cccc1-c1ccc([C@@H](C)NC(=O)C2(NC(=O)CC(F)(F)F)COC2)c(F)c1", "note": "[Example 8, 3-Chloro-3′-fluoro-4′-((R)-1-{[3-(3,3,3-trifluoro-propionylamino)-oxetane-3-carbonyl]-amino}-ethyl)-biphenyl-2-carboxylic acid methyl ester]", "values": [{"measurement": "Ki", "setting": "Bradykinin-1 receptor [1]", "result": 5.3, "unit": "nM"}, {"measurement": "IC50", "setting": "Bradykinin-1 receptor [2]", "result": 0.4, "unit": "nM"}]}, {"smiles": "Cc1cc(C(=O)NC2(C(=O)N[C@H](C)c3ncc(-c4cc(Cl)cc(Cl)c4OCC(F)F)cc3F)COC2)on1", "note": "[Example 9, 3-Methyl-isoxazole-5-carboxylic acid [3-((R)-1-{5-[3,5-dichloro-2-(2,2-difluoro-ethoxy)-phenyl]-3-fluoro-pyridin-2-yl}-ethylcarbamoyl)-oxetan-3-yl]-amide]", "values": [{"measurement": "Ki", "setting": "Bradykinin-1 receptor [1]", "result": 5.1, "unit": "nM"}, {"measurement": "IC50", "setting": "Bradykinin-1 receptor [2]", "result": 1.1, "unit": "nM"}]}, {"smiles": "C[C@@H](NC(=O)C1(NC(=O)c2ccno2)COC1)c1ncc(-c2cc(Cl)cc(Cl)c2OCC(F)F)cc1F", "note": "[Example 10, Isoxazole-5-carboxylic acid [3-((R)-1-{5-[3,5-dichloro-2-(2,2-difluoro-ethoxy)-phenyl]-3-fluoro-pyridin-2-yl}-ethylcarbamoyl)-oxetan-3-yl]-amide]", "values": [{"measurement": "Ki", "setting": "Bradykinin-1 receptor [1]", "result": 4.7, "unit": "nM"}, {"measurement": "IC50", "setting": "Bradykinin-1 receptor [2]", "result": 3.3, "unit": "nM"}]}, {"smiles": "C[C@@H](NC(=O)C1(NC(=O)c2cncnc2)COC1)c1ncc(-c2cc(Cl)cc(Cl)c2OCC(F)F)cc1F", "note": "[Example 11, Pyrimidine-5-carboxylic acid [3-((R)-1-{5-[3,5-dichloro-2-(2,2-difluoro-ethoxy)-phenyl]-3-fluoro-pyridin-2-yl}-ethylcarbamoyl)-oxetan-3-yl]-amide]", "values": [{"measurement": "Ki", "setting": "Bradykinin-1 receptor [1]", "result": 2.6, "unit": "nM"}, {"measurement": "IC50", "setting": "Bradykinin-1 receptor [2]", "result": 0.8, "unit": "nM"}]}, {"smiles": "COC(=O)c1c(Cl)cccc1-c1ccc([C@@H](C)NC(=O)C2(NC(=O)c3ccno3)COC2)c(F)c1", "note": "[Example 12, 3-Chloro-3′-fluoro-4′-[(R)-1-({3-[(isoxazole-5-carbonyl)-amino]-oxetane-3-carbonyl}-amino)-ethyl]-biphenyl-2-carboxylic acid methyl ester]", "values": [{"measurement": "Ki", "setting": "Bradykinin-1 receptor [1]", "result": 0.8, "unit": "nM"}, {"measurement": "IC50", "setting": "Bradykinin-1 receptor [2]", "result": 0.1, "unit": "nM"}]}, {"smiles": "COC(=O)c1c(Cl)cccc1-c1ccc([C@@H](C)NC(=O)C2(NC(=O)c3cc(C)no3)COC2)c(F)c1", "note": "[Example 13, 3-Chloro-3′-fluoro-4′-[(R)-1-({3-[(3-methyl-isoxazole-5-carbonyl)-amino]-oxetane-3-carbonyl}-amino)-ethyl]-biphenyl-2-carboxylic acid methyl ester]", "values": [{"measurement": "Ki", "setting": "Bradykinin-1 receptor [1]", "result": 1, "unit": "nM"}, {"measurement": "IC50", "setting": "Bradykinin-1 receptor [2]", "result": 0.04, "unit": "nM"}]}, {"smiles": "COc1cc(C(=O)NC2(C(=O)N[C@H](C)c3ncc(-c4cc(Cl)cc(F)c4-c4noc(C)n4)cc3F)COC2)on1", "note": "[Example 14, 3-Methoxy-isoxazole-5-carboxylic acid [3-((R)-1-{5-[5-chloro-3-fluoro-2-(5-methyl-[1,2,4]oxadiazol-3-yl)-phenyl]-3-fluoro-pyridin-2-yl}-ethylcarbamoyl)-oxetan-3-yl]-amide]", "values": [{"measurement": "Ki", "setting": "Bradykinin-1 receptor [1]", "result": 1.4, "unit": "nM"}, {"measurement": "IC50", "setting": "Bradykinin-1 receptor [2]", "result": 0.2, "unit": "nM"}]}, {"smiles": "COc1ncc(C(=O)NC2(C(=O)N[C@H](C)c3ncc(-c4cc(Cl)cc(F)c4-c4noc(C)n4)cc3F)COC2)cn1", "note": "[Example 15, 2-Methoxy-pyrimidine-5-carboxylic acid [3-((R)-1-{5-[5-chloro-3-fluoro-2-(5-methyl-[1,2,4]oxadiazol-3-yl)-phenyl]-3-fluoro-pyridin-2-yl}-ethylcarbamoyl)-oxetan-3-yl]-amide]", "values": [{"measurement": "Ki", "setting": "Bradykinin-1 receptor [1]", "result": 1.1, "unit": "nM"}, {"measurement": "IC50", "setting": "Bradykinin-1 receptor [2]", "result": 0.1, "unit": "nM"}]}, {"smiles": "Cc1nc(-c2c(F)cc(Cl)cc2-c2cnc([C@@H](C)NC(=O)C3(NC(=O)c4snnc4C)COC3)c(F)c2)no1", "note": "[Example 16, 4-Methyl-[1,2,3]thiadiazole-5-carboxylic acid [3-((R)-1-{5-[5-chloro-3-fluoro-2-(5-methyl-[1,2,4]oxadiazol-3-yl)-phenyl]-3-fluoro-pyridin-2-yl}-ethylcarbamoyl)-oxetan-3-yl]-amide]", "values": [{"measurement": "Ki", "setting": "Bradykinin-1 receptor [1]", "result": 1.6, "unit": "nM"}, {"measurement": "IC50", "setting": "Bradykinin-1 receptor [2]", "result": 0.4, "unit": "nM"}]}, {"smiles": "COCC(=O)NC1(C(=O)N[C@H](C)c2ncc(-c3cc(Cl)cc(F)c3-c3noc(C)n3)cc2F)COC1", "note": "[Example 17, 3-(2-Methoxy-acetylamino)-oxetane-3-carboxylic acid ((R)-1-{5-[5-chloro-3-fluoro-2-(5-methyl-[1,2,4]oxadiazol-3-yl)-phenyl]-3-fluoro-pyridin-2-yl}-ethyl)-amide]", "values": [{"measurement": "Ki", "setting": "Bradykinin-1 receptor [1]", "result": 25, "unit": "nM"}, {"measurement": "IC50", "setting": "Bradykinin-1 receptor [2]", "result": 26.6, "unit": "nM"}]}, {"smiles": "COc1cc(C(=O)NC2(C(=O)N[C@H](C)c3ncc(-c4cc(Cl)cc(Cl)c4OCC(F)F)cc3F)COC2)on1", "note": "[Example 18, 3-Methoxy-isoxazole-5-carboxylic acid [3-((R)-1-{5-[3,5-dichloro-2-(2,2-difluoro-ethoxy)-phenyl]-3-fluoro-pyridin-2-yl}-ethylcarbamoyl)-oxetan-3-yl]-amide]", "values": [{"measurement": "Ki", "setting": "Bradykinin-1 receptor [1]", "result": 3, "unit": "nM"}, {"measurement": "IC50", "setting": "Bradykinin-1 receptor [2]", "result": 1.1, "unit": "nM"}]}, {"smiles": "Cc1nc(-c2c(F)cc(Cl)cc2-c2cnc([C@@H](C)NC(=O)C3(NC(=O)c4nnc(C)o4)COC3)c(F)c2)no1", "note": "[Example 19, 5-Methyl-[1,3,4]oxadiazole-2-carboxylic acid [3-((R)-1-{5-[5-chloro-3-fluoro-2-(5-methyl-[1,2,4]oxadiazol-3-yl)-phenyl]-3-fluoro-pyridin-2-yl}-ethylcarbamoyl)-oxetan-3-yl]-amide]", "values": [{"measurement": "Ki", "setting": "Bradykinin-1 receptor [1]", "result": 5.1, "unit": "nM"}, {"measurement": "IC50", "setting": "Bradykinin-1 receptor [2]", "result": 1.2, "unit": "nM"}]}, {"smiles": "Cc1cc(C(=O)NC2(C(=O)N[C@H](C)c3ncc(-c4cc(Cl)cc(F)c4-c4nnn(C)n4)cc3F)COC2)on1", "note": "[Example 20, 3-Methyl-isoxazole-5-carboxylic acid [3-((R)-1-{5-[5-chloro-3-fluoro-2-(2-methyl-2H-tetrazol-5-yl)-phenyl]-3-fluoro-pyridin-2-yl}-ethylcarbamoyl)-oxetan-3-yl]-amide]", "values": [{"measurement": "Ki", "setting": "Bradykinin-1 receptor [1]", "result": 1.6, "unit": "nM"}, {"measurement": "IC50", "setting": "Bradykinin-1 receptor [2]", "result": 0.4, "unit": "nM"}]}]}
